Results taken from ChEMBL document CHEMBL2021886, “Identification of a series of 1,3,4-oxadiazol-2-amines as potent alpha-7 agonists with efficacy in the novel object recognition model of cognition” (Bioorg Med Chem Lett, 2012).

Columns and labels:
[1] = tested on: Liver; test: Clearance in rat liver assessed per gram of tissue; assay type: ADME, tissue-based; conditions: in vivo
[2] = tested on: Liver; test: Clearance in human liver assessed per gram of tissue; assay type: ADME, tissue-based
[3] = Blood clearance in Sprague-Dawley rat at 1 mg/kg, iv; assay type: ADME, organism-based; parameters: dose 1 mg/kg, route intravenous
[4] = Half life in Sprague-Dawley rat at 1 mg/kg, iv; assay type: ADME, organism-based; parameters: dose 1 mg/kg, route intravenous; conditions: in vivo
[5] = Drug uptake in Lister Hooded rat blood at 3 mg/kg, po after 3 hrs; assay type: ADME, organism-based; parameters: dose 3 mg/kg, route oral; conditions: read-out: Drug uptake
[6] = Ratio of drug level in brain to blood in Lister Hooded rat at 3 mg/kg, po after 3 hrs; assay type: ADME, organism-based; parameters: dose 3 mg/kg, route oral
[7] = tested on: Blood; test: Drug level in novel object recognition model of rat blood at 0.1 mg/kg, po; assay type: ADME, organism-based; parameters: dose 0.1 mg/kg, route oral; conditions: in vivo, read-out: Drug uptake
[8] = Intrinsic permeability of the compound in MDCK cells expressing MDR1; assay type: ADME, cell-based, Canis lupus familiaris; conditions: dog

CLH [1] [mL/min/g] | CLH [2] [mL/min/g] | clearance [3] [mL/min/kg] | half-life [4] [h] | concentration at 3 h [5] [nM] | Kp at 3 h [6] | concentration [7] [nM] | Papp [8] [×10⁻⁶ cm/s] | SMILES
< 0.5 | < 0.3 | 28 | 3.2 | 270 | 0.4 | – | – | COc1cc(NC(=O)c2ccccc2F)ccc1-c1nnc(NCCCN2CCCCC2)o1.Cl
– | – | – | – | – | – | 205 | 32.5 | COc1cc(NC(=O)c2ccccc2F)ccc1-c1nnc(NCCCN2CCCCC2)o1
< 0.5 | 0.5 | 41 | 0.6 | 294 | 0.12 | – | – | COc1cc(NC(=O)c2ccccc2F)ccc1-c1nnc(NCCCN2CCOCC2)o1.Cl
< 0.2 | 0.5 | 67 | 2.9 | 205 | 1.7 | – | – | Cl.O=C(Nc1ccc(-c2nnc(NCCCN3CCCCC3)o2)cc1)c1ccccc1F
